≈ marks a conversion by molar mass, not a printed value. Where two headings read alike, the source gives them in different places. Where a SMILES comes first, the peptide text is derived from it. Where no end group is shown, it is not given here.
How the values were obtained:
physchem = format: physicochemical
Method: The tests were carried out in three of the most common solvents used in biological applications such as: ultrapure water; DPBS (Dulbecco's Phosphate Buffered Saline), i.e., a saline buffer containing potassium chloride (KCl), monobasic potassium phosphate (KH2PO4), sodium chloride (NaCl) and dibasic sodium phosphate (Na2HPO4-7H2O) and finally in an organic solvent such as dimethylsulfoxide (DMSO).

[1] = format: physicochemical
Method: The structural and conformational characterization of the RiLK1 peptide was assessed by investigating its secondary structure by ^1H NMR spectroscopy in H2O and in a micellar solution of SDS at a concentration of 150 mM to mimic the condition of the bacterial cell membrane.
In fact, the representative structures of the RiLK1 peptide in water show a random orientation of both polar and hydrophobic amino acid side chains.
The helical structure appears well defined and stabilized by hydrophobic interactions of amino acid residues located on the opposite face. It is important to note that, in this arrangement, all the charged side chains are iso-oriented and well prone to interact with the negatively charged surface of the SDS micelles. Furthermore, the two tryptophan residues within the RiLK1 sequence are located at an optimal distance for their mutual stacking, thus contributing to the stabilization of the helix. It should be pointed out that the ^1H NMR spectra of the peptide IDR-1018-K6 (described in patent application WO2019012158) could not be acquired in the presence of micellar solutions of SDS since it is not soluble at the concentrations required to carry out these assays. […] Therefore, it is possible to assert that the NMR analysis in the presence of SDS has shown that the RiLK1 peptide of the present invention is capable of adopting the helix conformation, whereas the IDR-1018-K6 peptide (object of patent WO2019012158) has poor solubility and a heterogeneous system not suitable for NMR structural characterization (Table 2).

S. aureus = format: cell-based, Staphylococcus aureus
Method: (§1) The evaluation of the Minimum Bactericidal Concentration (MBC), i.e., the lowest concentration of antimicrobial agent capable of 99.9% inhibition of bacterial growth on plates, was carried out as described in Bílikova et al, (2015, Peptides 68:190-196). […] It should be noted that the peptide object of the present invention is more powerful and efficient than the peptide IDR-1018-K6 (described in patent application WO2019012158) against the pathogenic bacteria L. monocytogenes and S. typhimurium, with bactericidal concentration values 4-fold and 7-fold lower, respectively, compared to those shown by IDR-1018-K6.

L. monocytogenes (LM2) = format: cell-based, Listeria monocytogenes; conditions: LM2
Method: as §1

S. typhimurium = format: cell-based, Salmonella typhimurium
Method: as §1

E. coli = format: cell-based, Escherichia coli
Method: as §1

[2] = system: Aspergillus brasiliensis (ATCC 9341); test: antifungal activity, plate count, MFC; format: cell-based; conditions: A. brasiliensis
Method: The antifungal activity of the RiLK1 peptide was determined against Aspergillus brasiliensis. For this purpose, a stock culture was prepared in which 10^5 CFUs of A. brasiliensis were inoculated in 10 ml of buffered peptone water. A reference strain (ATCC 9341) was used for this fungal species. The culture was incubated for 6 h at 37° C. with the RiLK1 peptide at 25 μM concentrations. At the same time, control samples were incubated without adding the peptide. 100 μl of the samples thus prepared were seeded on DG18 plates (Dichloran 18% Glycerol Agar-ISO 21527-2) and incubated at 25° C. for 7 days. All experimental conditions investigated used the plate count method to estimate the fungicidal activity of the peptide. Specifically, the numbers of colonies grown on agar plates seeded with the fungal suspensions in the absence or presence of the individual peptide dilutions were counted and compared. The standard deviations of the triplicate incubations of each plate were determined using statistical software. The evaluation of the Minimum Fungicidal Concentration (MFC), i.e., the lowest concentration of antifungal agent capable of 99.9% inhibition of fungal growth on plates, was carried out as described in Bílikova et al, (2015, Peptides 68:190-196).

[3] = system: Candida albicans (ATCC 14053); test: activity against yeast, plate count, MFC; format: cell-based; conditions: C. albicans
Method: The inhibitory activity of the RiLK1 peptide was determined against the yeast Candida albicans. A stock culture was prepared in which 10^5 CFUs of C. albicans were inoculated in 10 ml of buffered peptone water. A reference strain (ATCC 14053) was used for this species. The culture was incubated for 6 h at 37° C. with the RiLK1 peptide at 25 μM concentrations. At the same time, control samples were incubated without adding the peptide. 100 μl of the samples thus prepared were seeded on DG18 plates (Dichloran 18% Glycerol Agar-ISO 21527-2) and incubated at 25° C. for 7 days. All experimental conditions investigated used the plate count method to estimate the antimycotic activity of the peptide. Specifically, the numbers of colonies grown on agar plates seeded with the cultures in the absence or presence of the individual peptide dilutions were counted and compared. The standard deviations of the triplicate incubations of each plate were determined using statistical software. The evaluation of the Minimum Fungicidal Concentration (MFC), i.e., the lowest concentration of antifungal agent capable of 99.9% inhibition of fungal growth on plates, was carried out as described in Bílikova et al, (2015, Peptides 68:190-196).

Compound	Solubility limit (physchem)	solubility (physchem; Solubility limit)	Outcome (physchem; pH 7.1)	Outcome (physchem)	solubility (physchem; pH 7.1, Solubility limit)	other results
CC[C@@H](C)[C@@H](NC(=O)[C@@H](CCCNC(=N)N)NC(=O)[C@H](NC(=O)[C@@H](CCCCN)NC(=O)[C@H](NC(=O)[C@H](NC(=O)[C@@H](CC(C)C)NC(=O)[C@@H](CCCNC(=N)N)NC(=O)[C@H](N)C(C)C)[C@H](C)CC)C(C)C)C(C)C)C(=O)N[C@H](Cc1c[nH]c2ccccc12)C(=O)N[C@H](CCCNC(=N)N)C(=O)N[C@H](CCCNC(=N)N)C(N)=O [IDR-1018-K6 (D)] (HELM PEPTIDE1{[dV].[dR].[dL].[dI].[dV].[dK].[dV].[dR].[dI].[dW].[dR].[dR].[am]}$$$$V2.0; N-terminus and C-terminus assumed)	0 µg/mL	10000 µg/mL (≈ 6.28 mM)	NOT dissolved			Solubility limit (physchem; pH 7.1): 0 µg/mL
CC[C@@H](C)[C@@H](NC(=O)[C@@H](CCCNC(=N)N)NC(=O)[C@H](NC(=O)[C@@H](Cc1c[nH]c2ccccc12)NC(=O)[C@@H](CCCCN)NC(=O)[C@@H](CC(C)C)NC(=O)[C@H](N)CCCNC(=N)N)C(C)C)C(=O)N[C@H](Cc1c[nH]c2ccccc12)C(=O)N[C@H](CCCNC(=N)N)C(=O)N[C@H](CCCNC(=N)N)C(N)=O [RiLK1(D), RLKWVRIWRR] (HELM PEPTIDE1{[dR].[dL].[dK].[dW].[dV].[dR].[dI].[dW].[dR].[dR].[am]}$$$$V2.0; N-terminus assumed)	10000 µg/mL (≈ 6.81 mM)	10000 µg/mL (≈ 6.81 mM)	Dissolved	Dissolved	10000 µg/mL (≈ 6.81 mM)	
RLKWVRIWRR-NH2 [RiLK1(L), RLKWVRIWRR]	10000 µg/mL	10000 µg/mL	Dissolved	Dissolved	10000 µg/mL	
VRLIVKVRIWRR-NH2 (C-terminus assumed) [IDR-1018-K6(L)]	10000 µg/mL	5000 µg/mL	Dissolved	Dissolved	5000 µg/mL	
VRLIVKVRIWRR-NH2 (C-terminus assumed) [IDR-1018-K6]		≤ 5000 µg/mL				solubility (physchem): totally insoluble; solubility [1]: 1000 µM; peptide concentration in NMR sample (solubility) ([1]; pH 4.4): insoluble; MBC (S. aureus): 15 µM; MBC (L. monocytogenes (LM2)): 8 µM; MBC (S. typhimurium): 25 µM; MBC (E. coli): 2 µM; Drop Log CFU/ml ([2]; 25 μM, 6 h): 0 Log CFU/ml; post-treatment decrease in the fungal load ([2]; 25 μM, 6 h): 0 Log; antifungal activity in words ([2]; same experimental conditions): not active; Drop Log CFU/ml ([3]; 25 μM, 6 h): 1.0 Log CFU/ml; post-treatment decrease in the fungal load ([3]; 25 μM, 6 h): 1.0 Log; antimycotic activity in words ([3]; same experimental conditions): low efficiency

Source: patent publication US20260234187A1, “ANTIMICROBIAL PEPTIDES” (MATERIAS S.R.L., priority 2020, published 2026)
